Where “and” joins values, the source holds several entries; their conditions need not be identical. Identical values can stand only once.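 Grown in 96-well plates, cells were treated for 48 hours with each compound at five concentrations. Insufficient inhibition: endpoint recorded as highest concentration tested. Here, GI50 denotes the concentration required for 50% inhibition of growth. TGI marks complete inhibition of growth.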
Tests used:
Test in all cases: NCI anticancer screen, dose series, 48 h
A498 renal = system: A498 renal
HCC-2998 colon = system: HCC-2998 colon
HCT-15 colon = system: HCT-15 colon
HT29 colon = system: HT29 colon
KM12 colon = system: KM12 colon
MDA-MB-435 = system: MDA-MB-435
RXF 393 renal = system: RXF 393 renal
SF-539 CNS = system: SF-539 CNS
SR leukemia = system: SR leukemia
SW-620 colon = system: SW-620 colon

Structure (SMILES)	GI50 (A498 renal)	TGI (A498 renal)	GI50 (HCC-2998 colon)	TGI (HCC-2998 colon)	GI50 (HCT-15 colon)	TGI (HCT-15 colon)	GI50 (HT29 colon)	TGI (HT29 colon)	GI50 (KM12 colon)	TGI (KM12 colon)	GI50 (MDA-MB-435)	TGI (MDA-MB-435)	GI50 (RXF 393 renal)	TGI (RXF 393 renal)	GI50 (SF-539 CNS)	TGI (SF-539 CNS)	GI50 (SR leukemia)	TGI (SR leukemia)	GI50 (SW-620 colon)	TGI (SW-620 colon)
CCN1C(=O)N(CC)C2C1NN=c1s/c(=C\c3ccc(Br)cc3)c(=O)n12 (stereo not given)	0.0833 µM	> 100 µM	0.349 µM	> 100 µM	0.0598 µM	> 100 µM	0.0757 µM	> 100 µM	0.0604 µM	> 100 µM	0.0252 µM	0.0706 µM	0.147 µM	> 100 µM	0.0759 µM	5.87 µM	0.04 µM	> 100 µM	0.0762 µM	> 100 µM
CC1(/C=C/c2ccc(-c3ccccc3)cc2)CCn2cnc3ncnc(c32)N1O (stereo not given)	0.0387 µM	3.99 µM	0.409 µM	34.6 µM	0.146 µM	33.5 µM	0.526 µM	41.7 µM	0.415 µM	23.1 µM	0.646 µM	39.6 µM	0.88 µM	40.3 µM	0.388 µM	5.55 µM	0.31 µM	> 100 µM	0.529 µM	24.6 µM
COc1ccc(COc2ccc(Cc3cnc(N)nc3N)cc2OC)cc1	2.27 µM	> 25 µM	> 25 µM	> 25 µM	> 23.7 µM	> 25 µM	11.7 µM	> 25 µM	1.03 µM	> 25 µM	> 25 µM	> 25 µM	8.21 µM	> 25 µM	> 25 µM	> 25 µM	24.3 µM	> 25 µM	> 25 µM	> 25 µM
OCC1OC(N2CCN(C3OC(CO)C(O)C(O)C3O)CC2)C(O)C(O)C1O (stereo not given)		> 100 µM		> 100 µM		> 100 µM		> 100 µM		> 100 µM		> 100 µM		> 100 µM		> 100 µM		> 100 µM		> 100 µM
NS(=O)(=O)c1ccc(NC(=O)Nc2cccc3ccccc23)cc1		52.2 µM		> 100 µM		> 100 µM		> 100 µM		> 100 µM		> 100 µM		> 100 µM		50.8 µM		> 100 µM		> 100 µM
Cc1cccc(Nc2ncc(-c3ccccc3)o2)c1	> 25 µM	> 25 µM	> 25 µM	> 25 µM	> 25 µM	> 25 µM	> 25 µM	> 25 µM	8.04 µM	> 25 µM	> 25 µM	> 25 µM	> 25 µM	> 25 µM	> 25 µM	> 25 µM	> 25 µM	> 25 µM	> 25 µM	> 25 µM
c1ccc(OCC[P+](c2ccccc2)(c2ccccc2)c2ccccc2)cc1	3.53 µM	16.6 µM	0.702 µM	12.9 µM	12 µM	> 100 µM	0.308 µM	10.9 µM	1.31 µM	8.84 µM	0.433 µM	4.31 µM	4.19 µM	16 µM	1.89 µM	13.1 µM	2.31 µM	12.3 µM	1.76 µM	11.8 µM
N/C(=N/O)NOCCC(N)C(=O)O (stereo not given)	> 100 µM	> 100 µM	> 100 µM	> 100 µM	> 100 µM	> 100 µM	> 100 µM	> 100 µM	> 100 µM	> 100 µM	> 100 µM	> 100 µM	> 100 µM	> 100 µM	> 100 µM	> 100 µM	> 100 µM	> 100 µM	> 100 µM	> 100 µM
Cn1cc(-c2[nH]c3cc(NC(=O)[C@H](N)C4CCCCC4)cc4c3c2C=NNC4=O)cn1	0.0542 µM and 0.0975 µM	0.352 µM and 0.579 µM	0.472 µM and 0.287 µM	19.9 µM and > 10 µM	12 µM and 5.1 µM	> 72 µM	1.44 µM and 0.994 µM	8.24 µM and > 10 µM	1.66 µM and 0.95 µM	12.7 µM and > 10 µM	0.245 µM and 0.286 µM	1.23 µM and 1.28 µM	0.104 µM and 0.187 µM	0.502 µM and 0.745 µM	0.118 µM and 0.109 µM	0.67 µM and 0.628 µM	0.0566 µM and 0.12 µM	0.622 µM and 1.1 µM	0.53 µM and 0.829 µM	13.6 µM and > 10 µM
COc1ccc(C2CC(=O)Nc3c2c(C)nn3-c2nc3ccccc3[nH]2)cc1OC (stereo not given)	2.01 µM	13.4 µM	10.9 µM	41.2 µM	4.76 µM	> 58.9 µM	5.66 µM	40 µM	3.7 µM	14.1 µM	3.25 µM	18.3 µM	2.19 µM	5.69 µM	2.85 µM	9.48 µM	3.36 µM	26.2 µM	4.86 µM	49.6 µM
CN1CCN(CCCn2c3c(sc4ncccc43)c(=O)n3nnc(-c4ccccc4)c23)CC1	6.7 µM	21.3 µM	5.12 µM	9.97 µM	1.87 µM	4.3 µM	1.82 µM	3.88 µM	1.55 µM	3.17 µM	1.79 µM	3.5 µM	4.4 µM	8.75 µM	1.71 µM	3.33 µM	0.241 µM	0.603 µM	1.52 µM	3.25 µM
Cn1cc(-c2nc(-c3c[nH]c4ccccc34)cs2)c2cccnc21	0.315 µM	6.1 µM	0.844 µM	> 79.7 µM	0.221 µM	> 100 µM	0.166 µM	18.3 µM	0.314 µM	22.8 µM	0.0321 µM	0.25 µM	0.368 µM	15.9 µM	0.282 µM	1.44 µM	0.167 µM	> 79.4 µM	0.221 µM	> 100 µM
CC(C)Cc1cc(-c2cccn2C)c(C#N)c(=O)[nH]1	> 100 µM	> 100 µM	> 100 µM	> 100 µM	> 100 µM	> 100 µM	> 100 µM	> 100 µM	> 100 µM	> 100 µM	> 100 µM	> 100 µM	> 100 µM	> 100 µM	> 100 µM	> 100 µM	59.7 µM	> 100 µM	> 100 µM	> 100 µM

Source: PubChem BioAssay (NCI)
